# From DBAASP
# What was measured:
# Assay in all cases: ≥ marks a high value that may be exact or a test limit, other limits are often not marked, values filed in µg/mL are converted to µM
# Botrytis cinerea = test system: Botrytis cinerea
# [1] = test system: Escherichia coli ATCC 11775
# [2] = test system: Candida albicans ATCC 10231
# [3] = test system: Staphylococcus aureus ATCC 12600
# [4] = test system: Saccharomyces cerevisiae KCTC 7296
# [5] = test system: Escherichia coli ATCC 25922
# [6] = test system: Pseudomonas aeruginosa ATCC 15692
# [7] = test system: Bacillus subtilis KCTC 1918
# [8] = test system: Pseudomonas aeruginosa KCTC 1637
# [9] = test system: Candida albicans KCTC 7270
# [10] = test system: Staphylococcus aureus KCTC 1621
# [11] = test system: Staphylococcus epidermidis KCTC 1917
# [12] = test system: Salmonella typhimurium KCTC 1926
# [13] = test system: Escherichia coli KCTC 1682
# [14] = test system: Staphylococcus aureus ATCC 25923
# [15] = test system: Trichosporon beigelii KCTC 7707
# [16] = test system: Proteus vulgaris KCTC 2433
# Escherichia coli BW25113 = test system: Escherichia coli BW25113
# Escherichia coli UB1005 = test system: Escherichia coli UB1005
# Escherichia coli DC2 = test system: Escherichia coli DC2
# [17] = test system: Pseudomonas aeruginosa ATCC 27853
# [18] = test system: Staphylococcus epidermidis C621
# [19] = test system: Enterococcus faecalis ATCC 29212
# [20] = test system: Corynebacterium xerosis C875
# [21] = test system: Bacillus subtilis ATCC 6633
# [22] = test system: Micrococcus luteus ATCC 9341
# Streptococcus uberis = test system: Streptococcus uberis
# Pseudomonas aeruginosa = test system: Pseudomonas aeruginosa
# [23] = test system: Staphylococcus aureus ATCC 29213
# [24] = test system: Staphylococcus epidermidis
# Pasteurella multocida = test system: Pasteurella multocida
# Enterobacter cloacae = test system: Enterobacter cloacae
# Bacillus cereus = test system: Bacillus cereus
# Micrococcus luteus = test system: Micrococcus luteus
# Listeria innocua = test system: Listeria innocua
# Leuconostoc lactis = test system: Leuconostoc lactis
# Enterococcus faecalis = test system: Enterococcus faecalis
# Escherichia coli = test system: Escherichia coli
smiles,measurement,setting,value
CSCC[C@H](NC(=O)[C@H](C)NC(=O)[C@H](C)NC(=O)[C@@H]1CCCN1C(=O)[C@H](CO)NC(=O)[C@@H](N)CC(C)C)C(=O)N[C@@H](C)C(=O)N[C@@H](CO)C(=O)N[C@@H](CC(C)C)C(=O)N[C@@H](C)C(N)=O [LSPAAMASLA],MIC,Botrytis cinerea,≥ 200 µM
same,MIC,[1],≥ 200 µM
same,MIC,[2],> 200 µM
same,MIC,[3],≥ 200 µM
CC[C@H](C)[C@H](NC(=O)[C@H](CCCCN)NC(=O)[C@H](CO)NC(=O)[C@H](Cc1ccccc1)NC(=O)[C@H](CC(C)C)NC(=O)[C@H](CCCCN)NC(=O)[C@@H]1CCCN1C(=O)[C@H](CC(C)C)NC(=O)[C@H](CCCN=C(N)N)NC(=O)[C@H](CCCCN)NC(=O)[C@H](Cc1ccccc1)NC(=O)[C@@H](NC(=O)[C@H](CCCCN)NC(=O)[C@H](CCCCN)NC(=O)[C@H](C)N)C(C)C)C(=O)N[C@@H](Cc1c[nH]c2ccccc12)C(=O)N[C@@H](CC(N)=O)C(=O)N[C@@H](Cc1c[nH]c2ccccc12)C(=O)N[C@@H](CCCCN)C(N)=O [AKKVFKRLPKLFSKIWNWK],MIC,[4],1.56 µM
same,MIC,[5],2 µM
same,MIC,[6],2 µM
same,MIC,[7],0.39 µM
same,MIC,[8],1.56 µM
same,MIC,[9],3.13 µM
same,MIC,[10],0.39 µM
same,MIC,[11],0.39 µM
same,MIC,[12],0.09 µM
same,MIC,[13],0.19 µM
same,MIC,[14],4 µM
same,MIC,[15],1.56 µM
same,MIC,[16],0.09 µM
CC(C)C[C@H](NC(=O)[C@H](Cc1ccc(O)cc1)NC(=O)[C@@H]1CCCN1)C(=O)N1CCC[C@H]1C(=O)N[C@@H](CCCN=C(N)N)C(=O)N1CCC[C@H]1C(=O)NCC(=O)N[C@@H](CCCN=C(N)N)C(=O)N[C@@H](CCCN=C(N)N)C(=O)N1CCC[C@H]1C(=O)N[C@@H](CCCN=C(N)N)C(=O)N[C@@H](Cc1ccccc1)C(=O)N1CCC[C@H]1C(=O)N1CCC[C@H]1C(=O)N1CCC[C@H]1C(=O)N[C@@H](Cc1ccccc1)C(=O)N1CCC[C@H]1C(=O)O [PYLPRPGRRPRFPPPFP],MIC,Escherichia coli BW25113,≥ 64 µM
C[C@H](NC(=O)[C@H](C)NC(=O)[C@H](C)NC(=O)[C@H](Cc1ccccc1)NC(=O)[C@H](C)NC(=O)[C@H](CCCCN)NC(=O)[C@@H](N)CCCCN)C(=O)N[C@@H](C)C(=O)N[C@@H](C)C(=O)N[C@@H](Cc1ccccc1)C(=O)N[C@@H](C)C(=O)N[C@@H](C)C(=O)N[C@@H](Cc1c[nH]c2ccccc12)C(=O)N[C@@H](C)C(=O)N[C@@H](C)C(=O)N[C@@H](Cc1ccccc1)C(=O)N[C@@H](C)C(=O)N[C@@H](CCCCN)C(=O)N[C@@H](CCCCN)C(=O)N[C@@H](CCCCN)C(=O)N[C@@H](CCCCN)C(N)=O [KKAFAAAAAFAAWAAFAKKKK],MIC,[5],32 µM
same,MIC,Escherichia coli UB1005,8 µM
same,MIC,Escherichia coli DC2,4 µM
same,MIC,[17],> 32 µM
same,MIC,[14],> 32 µM
same,MIC,[18],8 µM
same,MIC,[19],> 32 µM
same,MIC,[20],0.5 µM
same,MIC,[21],2 µM
CC[C@H](C)[C@H](N)C(=O)N[C@@H](C)C(=O)N1CCC[C@H]1C(=O)N[C@@H](Cc1c[nH]c2ccccc12)C(=O)N[C@@H](CCCCN)C(=O)N[C@@H](Cc1c[nH]c2ccccc12)C(=O)N1CCC[C@H]1C(=O)N[C@@H](Cc1c[nH]c2ccccc12)C(=O)N[C@@H](Cc1c[nH]c2ccccc12)C(=O)N1CCC[C@H]1C(=O)N[C@@H](Cc1c[nH]c2ccccc12)C(=O)N[C@@H](CCCN=C(N)N)C(=O)N[C@@H](CCCN=C(N)N)C(N)=O [IAPWKWPWWPWRR],MIC,[22],0.4 µM
CC[C@H](C)[C@H](NC(=O)[C@@H](NC(=O)[C@@H]1CCCN1C(=O)[C@@H](NC(=O)[C@@H](NC(=O)[C@H](Cc1cnc[nH]1)NC(=O)[C@@H]1CCCN1C(=O)[C@H](CC(C)C)NC(=O)[C@H](CC(C)C)NC(=O)[C@H](Cc1cnc[nH]1)NC(=O)[C@H](CCCCN)NC(=O)[C@H](C)NC(=O)[C@@H](NC(=O)[C@H](CO)NC(=O)CNC(=O)[C@H](CC(C)C)NC(=O)[C@@H](NC(=O)[C@H](CO)NC(=O)[C@H](Cc1ccccc1)NC(=O)[C@H](CC(C)C)NC(=O)CN)C(C)C)C(C)C)C(C)C)C(C)C)C(C)C)C(=O)N[C@@H](C)C(=O)N[C@@H](CCC(=O)O)C(=O)N[C@@H](CCCCN)C(=O)N[C@@H](CC(C)C)C(N)=O [GLFSVLGSVAKHLLPHVVPVIAEKL],MIC,Streptococcus uberis,9.53 µM
same,MIC,Pseudomonas aeruginosa,> 38.1 µM
same,MIC,[23],4.57 µM
same,MIC,[24],9.53 µM
same,MIC,Pasteurella multocida,19.1 µM
same,MIC,[14],4.57 µM
same,MIC,Enterobacter cloacae,≥ 38.1 µM
same,MIC,Bacillus cereus,19.1 µM
same,MIC,Micrococcus luteus,4.57 µM
same,MIC,Listeria innocua,4.57 µM
same,MIC,Leuconostoc lactis,9.53 µM
same,MIC,Enterococcus faecalis,≥ 38.1 µM
same,MIC,Escherichia coli,> 38.1 µM
CC[C@H](C)[C@H](NC(=O)[C@@H]1CCCN1C(=O)[C@@H]1CCCN1C(=O)[C@H](CCCN=C(N)N)NC(=O)[C@H](Cc1c[nH]c2ccccc12)NC(=O)[C@@H](N)CCCN=C(N)N)C(=O)N[C@@H](CCCN=C(N)N)C(=O)N[C@@H](CCCN=C(N)N)C(=O)N1CCC[C@H]1C(=O)N1CCC[C@H]1C(=O)N[C@H](C(=O)N[C@@H](CCCN=C(N)N)C(=O)N1CCC[C@H]1C(=O)N1CCC[C@H]1C(=O)N[C@@H](Cc1c[nH]c2ccccc12)C(=O)N[C@@H](Cc1ccc(O)cc1)C(=O)N1CCC[C@H]1C(=O)O)[C@@H](C)CC [RWRPPIRRPPIRPPWYP],MIC,Escherichia coli BW25113,16 µM
CC[C@H](C)[C@H](NC(=O)[C@@H]1CCCN1C(=O)[C@@H]1CCCN1C(=O)[C@H](CCCN=C(N)N)NC(=O)[C@H](Cc1ccccc1)NC(=O)[C@@H](N)CCCN=C(N)N)C(=O)N[C@@H](CCCN=C(N)N)C(=O)N[C@@H](CCCN=C(N)N)C(=O)N1CCC[C@H]1C(=O)N1CCC[C@H]1C(=O)N[C@H](C(=O)N[C@@H](CCCN=C(N)N)C(=O)N1CCC[C@H]1C(=O)N1CCC[C@H]1C(=O)N[C@@H](Cc1ccccc1)C(=O)N[C@@H](Cc1c[nH]c2ccccc12)C(=O)N1CCC[C@H]1C(=O)O)[C@@H](C)CC [RFRPPIRRPPIRPPFWP],MIC,Escherichia coli BW25113,16 µM
CC(C)C[C@H](NC(=O)[C@H](C)NC(=O)[C@H](CO)NC(=O)[C@@H](NC(=O)[C@@H](NC(=O)[C@H](CO)NC(=O)[C@H](CCCCN)NC(=O)[C@@H](NC(=O)[C@H](CC(C)C)NC(=O)CNC(=O)[C@H](CC(C)C)NC(=O)[C@H](CC(C)C)NC(=O)[C@H](CC(=O)O)NC(=O)[C@@H](N)Cc1ccccc1)C(C)C)C(C)C)C(C)C)C(N)=O [FDLLGLVKSVVSAL],MIC,Botrytis cinerea,5 µM
same,MIC,[1],≥ 200 µM
same,MIC,[2],100 µM
same,MIC,[3],25 µM
